According to patent US20250352555A1, “METHOD OF INCREASING IMMUNE CELL ACTIVATION AND/OR TREATING CANCER USING DIBENZOXAZEPINONES” (VASCULAR THERAPEUTICS PTY LTD, priority 2022, published 2025):

Legend:
[1] = test system: MeWo cells; assay: Apoptosis, flow cytometry with Annexin V-FITC, MeWo; assay type: cell-based, human; conditions: 1 μM, 24 h
Experimental: Flow cytometry with Annexin V-FITC. Cells were seeded into 6 well plates in normal culture medium containing 10% FBS. After culturing overnight, the cells were incubated in complete medium containing vehicle, BT2 or SCH772984 at 1 μM and left for 24 h. The culture medium was removed and the cells were washed with PBS. Accutase (Stem Cell Technologies, cat. no. 07920) was used to detach the cells. The cells were then washed and centrifuged at 300 g for 5 min and resuspended at 1×10^6 cells/ml in 500 μl of 1× binding buffer (Annexin V-FITC Apoptosis Staining/Detection Kit, Abcam, cat. no. ab14085). The cells were transferred to 12×75 mm tubes and annexin V-FITC/propidium iodide (PI) was added and incubated for 5 min at 22° C. protected from light. Stained cell suspensions were analyzed by flow cytometry using a BD LSRFortessa X20.
(§1) The morphology of A375 and MeWo cells exposed to 1 μM of BT2 or SCH772984 for 24 h was also assessed.

[2] = test system: MeWo cells; assay: Migration assay (scratch), MeWo; assay type: cell-based, human; conditions: 1 μM, 48 h, with greater potency than SCH772984
Experimental: Migration assays. Cells were grown in medium containing 10% FBS in 6-well plates. The following day the cells were scratched with a sterile toothpick, washed with PBS, and incubated in medium containing 10% FBS and vehicle, BT2 or SCH772984 at 1 μM. At 0, 24 h and 48 h the cells were photographed under a 4× objective using an Olympus CKX41 microscope. To assess the effect of BT2 on melanoma cell migration, A375 and MeWo cells were incubated with 1 μM of BT2 or SCH772984, and A375 and MeWo migration into the denuded zone was quantified after 24 or 48 h, respectively.

[3] = test system: human melanoma (MDA-MB-435 cells); assay: Melanoma growth in SCID mice bearing MDA-MB-435 xenograft; assay type: in vivo, mouse; conditions: 5 days-on/2 days-off; for tumor growth (volume): from Day 16
Experimental: In experiments with SCID mice, 5 week old CB17/lcr-Prkdcscid/lcrlcoCrl mice (sourced from Charles River Laboratories, USA) were inoculated s.c. with human MDA-MB-435 cells (2.5×10^6 cells/animal in 100 μl PBS) in the third mammary fat pad on Day 0. These cells were also sourced from ATCC. BT2 was suspended at 9.6 mg/ml in vehicle (saline containing 0.5% (v/v) Tween 80 and 0.01% (v/v) DMSO) and sonicated. Vehicle or BT2 were administered i.p. or intratumorally (i.t.) 20 mg/kg (i.t.) or 200 mg/kg (i.p.), once a day on a 5 days-on/2 days-off schedule. Treatment commenced on Day 16 and ended on Day 43. Tumor growth and body weight data is sourced from the animal study described in Li et al (Li et al., 2019) with the same vehicle group.
Tumors were measured by length and width in mm twice per week for MDA-MB-435 in SCID mice and by length, width and height in mm once per day for B16F10 in C57BL/6J mice. Tumor volumes were calculated using formula V=(L×W×H×π)/6 (B16F10) or V=L×W×W/2 (MDA-MB-435). If a second tumor was detected in an animal, both tumor volumes were measured and their volumes combined. Animal protocols were approved by the Explora Biolabs' Institutional Animal Care and Use Committee (IACUC) and the UNSW Animal Care and Ethics Committee.
BT2's ability to inhibit melanoma growth was investigated in a murine xenograft model. Immunocompromised SCID mice (C.B.17/lcr-Prkdcscid/lcrlcoCrl) bearing human melanoma (MDA-MB-435 cells, also mutant BRAF^V600E) were treated with 20 mg/kg BT2 intratumorally (i.t.) on a 5 days-on/2 days-off regime (FIG. 5A).
To assess the effect of BT2 when delivered systemically (rather than locally) in the same immunodeficient mouse model, C.B.17 SCID mice bearing s.c. MDA-MB-435 tumors were given BT2 200 mg/kg or vehicle i.p. once a day on a 5 days-on/2 days-off schedule. Treatment commenced on Day 16 (FIG. 7A).

[4] = test system: inflammation; conditions: arthritic mice (Yeh et al., 2021); cited from earlier work
[5] = test system: A375 cells; assay: Cell morphology study, A375; assay type: cell-based, human; conditions: 1 μM, 24 h
Experimental: Cell morphology studies. Cells were grown in medium containing 10% FBS in 4-well chamber slides. The following day the cells were incubated in medium containing 10% FBS and vehicle, BT2 or SCH772984 at 1 μM for 24 h, then fixed with 4% paraformaldehyde solution for 15 min. After washing briefly in PBS the cells were stained with hemotoxylin and eosin. The slides were scanned using an Aperio ScanScope XT slide scanner (Leica Biosystems, Mt Waverley, Vic, Australia) and images were captured using ImageScope software (Leica Biosystems).
as §1

[6] = MDA-MB-435, 20 mg/kg i.t. once a day

## CCOC(=O)Nc1ccc2c(c1)C(=O)N(CC)c1ccccc1O2 [BT2, (10-ethyl-11-oxo-10,11-dihydro-dibenzo[b,f][1,4]oxazepin-2-yl)-carbamic acid ethyl ester]
[1]
  apoptosis (Annexin V-FITC+ PI−): increased apoptosis
[2]
  migration into the denuded zone: suppressed melanoma migration
[3]; [6]
  body weight: no adverse effect on body weight
  tumor growth (volume): caused growth inhibition
[3]; MDA-MB-435, 200 mg/kg i.p. once a day
  tumor growth (volume): no inhibition was observed
[4]
  anti-inflammatory properties: possesses anti-inflammatory properties
[5]
  cell morphology: loss of spindle morphology and cell rounding
